Earlier results as cited in patent US10786601B2, “Composition comprising hyaluronic acid and mepivacaine” (Teoxane, priority 2013, dated 2020).

pKa: 7,6
Compound: Cc1cccc(C)c1NC(=O)C1CCCCN1C (racemic) [mepivacaine]
